In PubChem BioAssay (NCI):
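How tested: cells in 96-well plates exposed to compound for 48 hours at five concentrations. GI50 is the concentration that inhibits growth by half. At the TGI there is no net growth.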

Experiments:
Assay in all cases: inhibition of tumour cell growth, NCI panel, 48 h
[1] = tested on: NCI-H226 lung
[2] = tested on: HCT-116 colon
[3] = tested on: T-47D breast
[4] = tested on: BT-549 breast
[5] = tested on: MCF7 breast
[6] = tested on: IGROV1 ovarian
[7] = tested on: CAKI-1 renal
[8] = tested on: DU-145 prostate
[9] = tested on: UO-31 renal
[10] = tested on: HT29 colon
[11] = tested on: OVCAR-4 ovarian
[12] = tested on: HL-60(TB) leukemia
[13] = tested on: M14 melanoma
[14] = tested on: SF-268 CNS
[15] = tested on: NCI-H460 lung
[16] = tested on: KM12 colon
[17] = tested on: OVCAR-3 ovarian
[18] = tested on: SNB-75 CNS
[19] = tested on: PC-3 prostate
[20] = tested on: A498 renal
[21] = tested on: MALME-3M melanoma
[22] = tested on: SR leukemia
[23] = tested on: HOP-92 NSCLC
[24] = tested on: HCT-15 colon
[25] = tested on: SN12C renal
[26] = tested on: SK-OV-3 ovarian
[27] = tested on: HOP-62 NSCLC
[28] = tested on: OVCAR-5 ovarian
[29] = tested on: COLO 205 colon
[30] = tested on: MDA-MB-231 breast
[31] = tested on: SK-MEL-5 melanoma
[32] = tested on: SF-539 CNS
[33] = tested on: 786-0 renal
[34] = tested on: SNB-19 CNS
[35] = tested on: LOX IMVI melanoma
[36] = tested on: RXF 393 renal
[37] = tested on: NCI/ADR-RES ovarian
[38] = tested on: HS 578T breast
[39] = tested on: RPMI-8226 leukemia
[40] = tested on: NCI-H23 lung
[41] = tested on: ACHN renal
[42] = tested on: UACC-62 melanoma
[43] = tested on: K-562 leukemia
[44] = tested on: MDA-MB-435
[45] = tested on: HCC-2998 colon
[46] = tested on: SF-295 CNS
[47] = tested on: SW-620 colon
[48] = tested on: U251 CNS
[49] = tested on: OVCAR-8 ovarian
[50] = tested on: SK-MEL-28 melanoma
[51] = tested on: MOLT-4 leukemia
[52] = tested on: SK-MEL-2 melanoma
[53] = tested on: TK-10 renal
[54] = tested on: EKVX NSCLC
[55] = tested on: A549 NSCLC
[56] = tested on: CCRF-CEM leukemia
[57] = tested on: NCI-H522 lung
[58] = tested on: UACC-257 melanoma

COC(=O)[C@H](Cc1cn(C)cn1)NC(=O)[C@H](CC(C)C)NC(=O)Nc1cc(C(F)(F)F)cc(C(F)(F)F)c1
GI50 [1]: > 10 µM
TGI [1]: > 10 µM
GI50 [2]: 2.14 µM
TGI [2]: 4.14 µM
GI50 [3]: 6.56 µM
TGI [3]: > 10 µM
GI50 [4]: > 10 µM
TGI [4]: > 10 µM
GI50 [5]: 2.52 µM
TGI [5]: 7.76 µM
GI50 [6]: 4.63 µM
TGI [6]: > 10 µM
GI50 [7]: > 10 µM
TGI [7]: > 10 µM
GI50 [8]: > 10 µM
TGI [8]: > 10 µM
GI50 [9]: > 10 µM
TGI [9]: > 10 µM
GI50 [10]: 8.05 µM
TGI [10]: > 10 µM
GI50 [11]: > 10 µM
TGI [11]: > 10 µM
GI50 [12]: > 10 µM
TGI [12]: > 10 µM
GI50 [13]: > 10 µM
TGI [13]: > 10 µM
GI50 [14]: 3.16 µM
TGI [14]: > 10 µM
GI50 [15]: > 10 µM
TGI [15]: > 10 µM
GI50 [16]: > 10 µM
TGI [16]: > 10 µM
GI50 [17]: 2.23 µM
TGI [17]: 4.82 µM
GI50 [18]: > 10 µM
TGI [18]: > 10 µM
GI50 [19]: 4.64 µM
TGI [19]: > 10 µM
GI50 [20]: > 10 µM
TGI [20]: > 10 µM
GI50 [21]: > 10 µM
TGI [21]: > 10 µM
GI50 [22]: 2.59 µM
TGI [22]: 8.41 µM
GI50 [23]: > 10 µM
TGI [23]: > 10 µM
GI50 [24]: > 10 µM
TGI [24]: > 10 µM
GI50 [25]: 6.69 µM
TGI [25]: > 10 µM
GI50 [26]: > 10 µM
TGI [26]: > 10 µM
GI50 [27]: > 10 µM
TGI [27]: > 10 µM
GI50 [28]: > 10 µM
TGI [28]: > 10 µM
GI50 [29]: > 10 µM
TGI [29]: > 10 µM
GI50 [30]: 4.64 µM
TGI [30]: > 10 µM
GI50 [31]: > 10 µM
TGI [31]: > 10 µM
GI50 [32]: > 10 µM
TGI [32]: > 10 µM
GI50 [33]: > 10 µM
TGI [33]: > 10 µM
GI50 [34]: > 10 µM
TGI [34]: > 10 µM
GI50 [35]: 4.89 µM
TGI [35]: > 10 µM
GI50 [36]: 3.46 µM
TGI [36]: > 10 µM
GI50 [37]: > 10 µM
TGI [37]: > 10 µM
GI50 [38]: > 10 µM
TGI [38]: > 10 µM
GI50 [39]: 4.98 µM
TGI [39]: > 10 µM
GI50 [40]: > 10 µM
TGI [40]: > 10 µM
GI50 [41]: > 10 µM
TGI [41]: > 10 µM
GI50 [42]: > 10 µM
TGI [42]: > 10 µM
GI50 [43]: 6.41 µM
TGI [43]: > 10 µM
GI50 [44]: > 10 µM
TGI [44]: > 10 µM
GI50 [45]: 5.62 µM
TGI [45]: > 10 µM
GI50 [46]: > 10 µM
TGI [46]: > 10 µM
GI50 [47]: 5.28 µM
TGI [47]: > 10 µM
GI50 [48]: > 10 µM
TGI [48]: > 10 µM
GI50 [49]: 9.54 µM
TGI [49]: > 10 µM
GI50 [50]: 8 µM
TGI [50]: > 10 µM
GI50 [51]: 3.4 µM
TGI [51]: > 10 µM
GI50 [52]: > 10 µM
TGI [52]: > 10 µM
GI50 [53]: > 10 µM
TGI [53]: > 10 µM

O=C(Nc1ccc(Cl)c(C(F)(F)F)c1)Nc1ccc(-c2cccnc2)cc1N1CCC(CO)CC1
GI50 [1]: 2.68 µM
TGI [1]: 9.79 µM
GI50 [2]: 2.53 µM
TGI [2]: 6.9 µM
GI50 [54]: 1.72 µM
TGI [54]: > 100 µM
GI50 [3]: 2.09 µM
TGI [3]: 7.76 µM
GI50 [4]: 2.13 µM
TGI [4]: 6.22 µM
GI50 [5]: 2.2 µM
TGI [5]: 6.96 µM
GI50 [55]: 3.45 µM
TGI [55]: 23.8 µM
GI50 [6]: 3.48 µM
TGI [6]: > 100 µM
GI50 [7]: 2.32 µM
TGI [7]: 16 µM
GI50 [8]: 3.74 µM
TGI [8]: > 100 µM
GI50 [9]: 2.43 µM
TGI [9]: > 100 µM
GI50 [10]: 1.92 µM
TGI [10]: 4.02 µM
GI50 [11]: 2.97 µM
TGI [11]: > 100 µM
GI50 [56]: 2.9 µM
TGI [56]: > 100 µM
GI50 [13]: 1.93 µM
TGI [13]: 4.85 µM
GI50 [14]: 2.39 µM
TGI [14]: 8.21 µM
GI50 [15]: 2.32 µM
TGI [15]: 6.24 µM
GI50 [16]: 2.2 µM
TGI [16]: 6.44 µM
GI50 [17]: 1.84 µM
TGI [17]: 4.3 µM
GI50 [18]: 2.1 µM
TGI [18]: 8.03 µM
GI50 [19]: 1.87 µM
TGI [19]: 5.37 µM
GI50 [20]: 1.26 µM
TGI [20]: 4.42 µM
GI50 [21]: 2.27 µM
TGI [21]: 7.36 µM
GI50 [22]: 3.49 µM
TGI [22]: > 100 µM
GI50 [23]: 2.22 µM
TGI [23]: 5.6 µM
GI50 [24]: 2.32 µM
TGI [24]: 8.01 µM
GI50 [25]: 3.46 µM
TGI [25]: 19 µM
GI50 [26]: 2.22 µM
TGI [26]: 6.59 µM
GI50 [27]: 2.02 µM
TGI [27]: 5.09 µM
GI50 [28]: 2.96 µM
TGI [28]: > 100 µM
GI50 [29]: 1.65 µM
TGI [29]: 3.18 µM
GI50 [30]: 1.92 µM
TGI [30]: 4.34 µM
GI50 [31]: 1.63 µM
TGI [31]: 3.12 µM
GI50 [32]: 2.29 µM
TGI [32]: 5.84 µM
GI50 [33]: 1.84 µM
TGI [33]: 4.52 µM
GI50 [57]: 1.73 µM
TGI [57]: 3.43 µM
GI50 [34]: 3.89 µM
TGI [34]: > 100 µM
GI50 [35]: 1.92 µM
TGI [35]: 3.66 µM
GI50 [36]: 1.74 µM
TGI [36]: 3.34 µM
GI50 [37]: 2.85 µM
TGI [37]: 9.11 µM
GI50 [58]: 3.47 µM
TGI [58]: 9.82 µM
GI50 [38]: 2.79 µM
TGI [38]: 8.46 µM
GI50 [40]: 2.78 µM
TGI [40]: 9.55 µM
GI50 [41]: 3 µM
TGI [41]: > 100 µM
GI50 [42]: 2.18 µM
TGI [42]: 6.75 µM
GI50 [43]: 3.3 µM
TGI [43]: > 100 µM
GI50 [44]: 1.91 µM
TGI [44]: 4.53 µM
GI50 [45]: 2.31 µM
TGI [45]: 4.9 µM
GI50 [46]: 2.11 µM
TGI [46]: 5.15 µM
GI50 [47]: 2.76 µM
TGI [47]: 27.2 µM
GI50 [48]: 2.41 µM
TGI [48]: 7.1 µM
GI50 [49]: 3.75 µM
TGI [49]: 35.4 µM
GI50 [50]: 2.22 µM
TGI [50]: 5.71 µM
GI50 [51]: 2.57 µM
TGI [51]: > 100 µM
GI50 [52]: 1.86 µM
TGI [52]: 4.34 µM
GI50 [53]: 1.85 µM
TGI [53]: 4.76 µM
